# Reference: ChEMBL document CHEMBL5154671 (Eur J Med Chem, 2022)
# Active and inactive are the calls of the source. No cut-off for these calls is given here.
# What was measured:
# Mus musculus [1] = experiment: Protection against CCl4-induced liver fibrosis in male C57BL/6 mouse assessed as decrease in collagen area in liver at 250 mg/kg measured by masson staining; type: functional, organism-based
# Mus musculus [2] = experiment: Protection against CCl4-induced liver fibrosis in male C57BL/6 mouse assessed as decrease in hepatic hydroxyproline content at 250 mg/kg […]; type: functional, organism-based
# [3] = target: Free fatty acid receptor 1 (Homo sapiens, UniProt O14842); experiment: Agonist activity at human FFA1 expressed in CHO cells measured by FLIPR assay; type: functional, cell-based
# Mus musculus [4] = experiment: Hypolipidemic activity in Triton1339W-induced hyperlipidemic ICR mouse model assessed as reduction in plasma TC level at 80 mg/kg, administered once daily for 5 days; type: functional, organism-based; settings: time 5.0 day
# [5] = target: T1, Peroxisome proliferator-activated receptor alpha (Homo sapiens, UniProt Q07869); experiment: Agonist activity at human PPARalpha measured by dual luciferase reporter gene assay
# T1 sequence (Q07869 whole entry): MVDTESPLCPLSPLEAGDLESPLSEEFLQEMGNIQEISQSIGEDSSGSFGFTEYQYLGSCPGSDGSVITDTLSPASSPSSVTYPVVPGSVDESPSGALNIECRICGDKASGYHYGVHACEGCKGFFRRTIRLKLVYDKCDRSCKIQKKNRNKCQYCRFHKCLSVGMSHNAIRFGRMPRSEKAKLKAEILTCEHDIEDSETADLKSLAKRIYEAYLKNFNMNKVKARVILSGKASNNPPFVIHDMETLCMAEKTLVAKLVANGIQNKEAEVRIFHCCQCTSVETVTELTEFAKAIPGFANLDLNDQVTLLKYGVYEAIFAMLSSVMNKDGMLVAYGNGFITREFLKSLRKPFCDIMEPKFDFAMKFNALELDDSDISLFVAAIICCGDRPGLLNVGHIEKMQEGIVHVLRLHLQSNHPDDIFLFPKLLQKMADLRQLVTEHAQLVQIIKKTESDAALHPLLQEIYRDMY
# [6] = target: T2, Peroxisome proliferator-activated receptor delta (Homo sapiens, UniProt Q03181); experiment: Agonist activity at human PPARdelta measured by dual luciferase reporter gene assay
# T2 sequence (Q03181 whole entry): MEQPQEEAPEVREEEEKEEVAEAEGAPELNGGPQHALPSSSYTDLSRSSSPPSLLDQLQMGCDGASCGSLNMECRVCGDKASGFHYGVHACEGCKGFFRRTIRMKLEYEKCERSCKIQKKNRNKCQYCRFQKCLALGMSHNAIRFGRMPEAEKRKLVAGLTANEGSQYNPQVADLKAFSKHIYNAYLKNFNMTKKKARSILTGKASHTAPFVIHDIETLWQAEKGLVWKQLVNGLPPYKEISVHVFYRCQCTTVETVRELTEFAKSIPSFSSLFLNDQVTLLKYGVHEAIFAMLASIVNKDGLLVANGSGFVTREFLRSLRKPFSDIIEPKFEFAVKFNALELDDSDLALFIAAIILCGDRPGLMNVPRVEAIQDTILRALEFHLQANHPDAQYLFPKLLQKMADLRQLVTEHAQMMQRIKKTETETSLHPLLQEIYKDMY
# [7] = target: T3, Peroxisome proliferator-activated receptor gamma (Homo sapiens, UniProt P37231); experiment: Agonist activity at human PPARgamma measured by dual luciferase reporter gene assay
# T3 sequence (P37231 whole entry): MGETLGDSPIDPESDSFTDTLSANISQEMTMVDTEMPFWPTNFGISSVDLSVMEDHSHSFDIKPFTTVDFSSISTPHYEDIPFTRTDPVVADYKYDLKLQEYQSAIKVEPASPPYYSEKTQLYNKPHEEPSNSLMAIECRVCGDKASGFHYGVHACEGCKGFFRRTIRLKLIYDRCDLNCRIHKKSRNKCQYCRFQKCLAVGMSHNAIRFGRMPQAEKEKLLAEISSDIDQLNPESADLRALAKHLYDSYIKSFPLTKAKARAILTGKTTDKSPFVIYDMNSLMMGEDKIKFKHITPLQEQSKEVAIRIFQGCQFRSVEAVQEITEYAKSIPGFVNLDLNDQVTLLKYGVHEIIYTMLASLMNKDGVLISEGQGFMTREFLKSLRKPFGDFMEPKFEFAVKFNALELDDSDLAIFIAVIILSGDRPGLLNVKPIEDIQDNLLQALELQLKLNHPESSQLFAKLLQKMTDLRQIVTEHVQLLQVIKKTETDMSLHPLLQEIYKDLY
# Mus musculus [8] = experiment: Hypolipidemic activity in Triton1339W-induced hyperlipidemic ICR mouse model assessed as reduction in plasma TG level at 80 mg/kg, administered once daily for 5 days; type: functional, organism-based; settings: time 5.0 day
# [9] = Clearance in rat liver microsomes in presence of NADPH measured by LC/MS analysis; type: ADME, Microsome; settings: read-out: CLH
# [10] = Half-life in rat liver microsomes in presence of NADPH measured by LC/MS analysis; type: ADME, Microsome
# Mus musculus [11] = experiment: Anti-NASH activity in high-fat/high-sugar diet and CCl4-induced nonalcoholic steatohepatitis male C57BL/6 mouse assessed as decrease in disease activity score at 100 mg/kg, po administered for 4 weeks; type: functional, organism-based
# Mus musculus [12] = experiment: Anti-NASH activity in high-fat/high-sugar diet and CCl4-induced nonalcoholic steatohepatitis male C57BL/6 mouse assessed as decrease in hepatocyte ballooning score at 100 mg/kg, po administered for 4 weeks; type: functional, organism-based
# Mus musculus [13] = experiment: Anti-NASH activity in high-fat/high-sugar diet and CCl4-induced nonalcoholic steatohepatitis male C57BL/6 mouse assessed as decrease in lobular inflammation score at 100 mg/kg, po administered for 4 weeks; type: functional, organism-based
# Mus musculus [14] = experiment: Anti-NASH activity in high-fat/high-sugar diet and CCl4-induced nonalcoholic steatohepatitis male C57BL/6 mouse assessed as decrease in F4/80 expression at 100 mg/kg, po administered for 4 weeks; type: functional, organism-based
# Mus musculus [15] = experiment: Protection against liver fibrosis in high-fat/high-sugar diet and CCl4-induced nonalcoholic steatohepatitis male C57BL/6 mouse assessed as decrease in collagen area at 100 mg/kg, po administered for 4 weeks; type: functional, organism-based
# Mus musculus [16] = experiment: Protection against liver fibrosis in high-fat/high-sugar diet and CCl4-induced nonalcoholic steatohepatitis male C57BL/6 mouse assessed as decrease in alpha-SMA expression in liver at 100 mg/kg, po administered for 4 weeks; type: functional, organism-based
# Mus musculus [17] = experiment: Anti-fibrotic activity in high-fat/high-sugar diet and CCl4-induced nonalcoholic steatohepatitis male C57BL/6 mouse assessed as decrease in COL1A1 mRNA expression at 100 mg/kg, po administered for 4 weeks; type: functional, organism-based
# Sequence of Free fatty acid receptor 1 (O14842 whole entry): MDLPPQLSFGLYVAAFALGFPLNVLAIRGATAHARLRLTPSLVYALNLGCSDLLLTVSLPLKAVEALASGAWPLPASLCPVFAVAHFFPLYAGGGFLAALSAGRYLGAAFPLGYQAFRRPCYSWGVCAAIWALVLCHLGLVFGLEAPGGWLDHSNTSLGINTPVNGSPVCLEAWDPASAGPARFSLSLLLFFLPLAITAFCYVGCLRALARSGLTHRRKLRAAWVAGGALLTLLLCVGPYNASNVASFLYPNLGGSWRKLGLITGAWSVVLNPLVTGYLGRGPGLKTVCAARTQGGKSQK
EC50 [3] [µM],EC50 [5] [µM],EC50 [6] [µM],EC50 [7] [µM],SMILES,Activity (Mus musculus [4]),Activity (Mus musculus [8]),also measured
–,–,–,–,Cc1ccc(=O)n(-c2ccccc2)c1,–,–,Activity (Mus musculus [1]): Active; Activity (Mus musculus [2]): Active
0.4,–,–,–,COc1ccc(-c2cccc(OCc3ccc(OCC(=O)O)c(F)c3)c2)cc1,Active,–,–
6.8,10.8,20.8,–,O=C(O)COc1ccc(COc2cccc(-c3nc4cc(Cl)ccc4o3)c2)cc1F,–,–,–
–,6.3,–,10.2,Cc1ccc2[nH]c(-c3cccc(OCCCCCCCC(=O)O)c3)nc2c1,–,–,–
–,10.5,7.8,–,COc1ccc2cc(-c3cccc(OCc4ccc(OCC(=O)O)c(F)c4)c3)ccc2c1,–,–,–
–,9.6,7.2,–,O=C(O)COc1ccc(COc2cccc(-c3ccc4cc(OCC5CC5)ccc4c3)c2)cc1F,–,–,–
4.2,12.9,5.7,22.6,CCOc1ccc(/C=C/c2cc(OCC)cc(OCc3ccc(OCC(=O)O)c(F)c3)c2)cc1,Active,Active,–
–,15.6,10.8,–,COc1ccc2ccc(-c3cccc(OCc4ccc(OCC(=O)O)c(F)c4)c3)cc2c1,–,–,–
1.8,7.5,6.5,25.8,COc1ccc(/C=C/c2cc(OC)cc(OCCCCCCCC(=O)O)c2)cc1,Active,Active,microsomal CLint [9]: 72 µL/min/mg; half-life [10]: 19.3 min; Activity (Mus musculus [11]): Active; Activity (Mus musculus [12]): Active; Activity (Mus musculus [13]): Active; Activity (Mus musculus [14]): Active; Activity (Mus musculus [15]): Active; Activity (Mus musculus [16]): Active; Activity (Mus musculus [17]): Active
2.1,7.8,10.2,–,O=C(O)COc1ccc(COc2cccc(-c3nc4ccccc4s3)c2)cc1F,–,–,–
–,10.3,8.37,24.5,O=C(O)COc1ccc(COc2cc(/C=C/c3ccc(OCC4CC4)cc3)cc(OCC3CC3)c2)cc1F,Active,Active,–
–,2.35,2.8,20.6,COc1ccc(/C=C/c2cc(OC)cc(OCc3ccc(OC(C)(C)C(=O)O)c(F)c3)c2)cc1,Active,Active,–
–,7.6,5.16,20.7,COc1ccc(/C=C/c2cc(OC)cc(OCc3ccc(OCC(=O)O)c(C)c3)c2)cc1,Active,Active,–
10.3,20.8,8.75,15.6,COc1ccc(/C=C/c2cc(OC)cc(OCc3ccc(OCC(=O)O)cc3)c2)cc1,Active,Active,–
–,8.72,4.5,18.2,COc1ccc(/C=C/c2cc(OC)cc(OCc3ccc(OC(C)C(=O)O)c(F)c3)c2)cc1 (stereo not given),Active,Active,–
